# According to patent US4581231A (priority 1983, dated 1986):
# Where two headings read alike, the source gives them in different places.
# What was measured:
# [1] = test system: non-A, non-B hepatitis virus (H strain)
# Avian influenza virus [2] = conditions: 10% (v/v) chloroform
# Vaccinia Virus [3] = conditions: 10% (v/v) chloroform
# Vaccinia virus [4] = conditions: for inactivation of vaccinia virus: dry product 20 minutes, Factor 8; for Percent Inactivation: Vaccinia, dry state 20 min, Factor VIII
# Hepatitis B virus [5] = test system: Hepatitis B virus; design: species or system rhesus monkeys; conditions: rhesus monkey, in vivo
# Hepatitis B virus [6] = conditions: in vivo
# Avian influenza virus [7] = conditions: for Percent Inactivation: Influenza, dry state 20 min, Factor VIII
# Vaccinia virus [8] = test system: Vaccinia virus
# Polio Virus Type 1 = conditions: 10% (v/v) chloroform
# Fibronectin = conditions: Factorate
# Experimental: (§1) Lyophilized Factor VIII (Factorate--Armour) was extracted with chloroform using three different procedures.
# (§2) A. 1 gram of Factorate (dry powder) was mixed at 4° C. for 20 minutes with 20 ml of cold chloroform. The chloroform was then removed by filtration and the dry powder was washed on the filter with an additional 10 ml of cold chloroform.
# (§3) B. 1 gram of Factorate (dry powder) was mixed with 10 ml of cold chloroform at 4° C. for 10 minutes. The chloroform was removed by filtration and the powder was washed on the filter with 5 ml of cold chloroform. This process was then repeated a second time.
# (§4) C. 1 gram of Factorate (dry powder) was mixed with 20 ml of chloroform at room temperature for 20 minutes. The chloroform was removed by filtration and the dry powder was washed on the filter with 10 ml of chloroform at room temperature.
# Fibrinogen = conditions: Factorate
# Experimental: as §1, §2, §3, §4
# Factor VIII:c = conditions: Factorate
# Experimental: as §1, §2, §3, §4
# [9] = preliminary, uncontrolled, 10^-2 dilution of H plasma, 5% v/v chloroform
smiles,measurement,setting,value
"ClC(Cl)Cl [Chloroform, chloroform]",inactivation of 10^4 chimpanzee infectious doses,[1]; 10^4 chimpanzee infectious doses of the H strain of NANB,inactivated
same,evidence of hepatitis,"[1]; chimpanzee 947, following either chloroform-treated or sham-treated H plasma",no evidence of hepatitis
same,biochemical evidence of hepatitis (weekly ALT levels),"[1]; chimpanzees 889 and 947, chloroform-treated H plasma, 10% (v/v) chloroform",none of these animals developed biochemical evidence of hepatitis
same,incubation period,[1]; [9],9.5 weeks
same,infectivity after chloroform treatment,[1]; [9],still infectious
same,virus titer (indicated by incubation period),[1]; [9],reduced
same,reaction of control virus to chloroform treatment,Avian influenza virus [2],totally inactivated
same,Virus Titer Log10 ID50 /0.1 ml after CHCl3 extraction,"Vaccinia Virus [3]; Vaccinia virus in Fetal Calf Serum, 1:100, 10 min, room temperature",≤ 0.5 Log10 ID50 /0.1 ml
same,reaction of control virus to chloroform treatment,Vaccinia Virus [3]; Vaccinia virus,totally inactivated
same,inactivation of vaccinia virus,Vaccinia virus [4]; 4°,not inactivated
same,inactivation of vaccinia virus,Vaccinia virus [4]; 20° and 40° C.,partially inactivated
same,Percent Inactivation,Vaccinia virus [4]; 4° C.,0%
same,Percent Inactivation,Vaccinia virus [4]; 20° C.,70%
same,Percent Inactivation,Vaccinia virus [4]; 40° C.,70%
same,inactivation of the virus,Hepatitis B virus [5],inactivated
same,anti-HBs / anti-HBc response,Hepatitis B virus [6],did develop anti-HBs but not anti-HBc
same,biochemical evidence of hepatitis (weekly ALT levels),Hepatitis B virus [6],none of these animals developed biochemical evidence of hepatitis
same,Virus Titer Log10 ID50 /0.1 ml after CHCl3 extraction,coliphage .phi.×174,9.0 Log10 ID50 /0.1 ml
same,reaction of control virus to chloroform treatment,coliphage .phi.×174,essentially unaffected
same,Percent Inactivation,Avian influenza virus [7]; 4° C.,99.8%
same,Percent Inactivation,Avian influenza virus [7]; 20° C.,90%
same,completeness of inactivation of avian influenza virus,"Avian influenza virus [7]; dry product 20 minutes, Factor 8",inactivation was not complete
same,inactivation of avian influenza virus,"Avian influenza virus [7]; dry product 20 minutes, Factor 8, similar conditions of treatment",90-99.8%
same,inactivation of vaccinia virus,"Vaccinia virus [8]; after 20 minutes, dry state, room temperature (20° C.)",90%
same,inactivation of vaccinia virus,"Vaccinia virus [8]; after 2 hours, dry state, room temperature (20° C.)",98%
same,inactivation of vaccinia virus,"Vaccinia virus [8]; after 4 hours or more, dry state, room temperature (20° C.)",completely inactivated
same,inactivation of vaccinia virus,"Vaccinia virus [8]; regardless whether in the liquid or dry state, longer time required when dry",completely inactivated
same,Virus Titer Log10 ID50 /0.1 ml after CHCl3 extraction,"Polio Virus Type 1; Polio virus type 1 in Fetal Calf Serum, 1:100, 10 min, room temperature",6.5 Log10 ID50 /0.1 ml
same,reaction of control virus to chloroform treatment,Polio Virus Type 1; poliovirus,essentially unaffected
same,Fibronectin,Fibronectin; 4° C. 1 × Extracted (control 1.11 mg),1.19 mg/mL
same,Fibronectin,Fibronectin; 4° C. 2 × Extracted (control 1.11 mg),1.29 mg/mL
same,Fibronectin,Fibronectin; Room Temp. Extraction (control 1.11 mg),1.14 mg/mL
same,Fibrinogen,Fibrinogen; 4° C. 1 × Extracted (control 8.9 mg),9.3 mg/mL
same,Fibrinogen,Fibrinogen; 4° C. 2 × Extracted (control 8.9 mg),8.6 mg/mL
same,Fibrinogen,Fibrinogen; Room Temp. Extraction (control 8.9 mg),9.3 mg/mL
same,Factor VIII Units/ml,Factor VIII:c; 4° C. 1 × Extracted (control 9.1),8.9 Units/ml
same,Factor VIII Units/ml,Factor VIII:c; 4° C. 2 × Extracted (control 9.1),9.3 Units/ml
same,Factor VIII Units/ml,Factor VIII:c; Room Temp. Extraction (control 9.1),9.5 Units/ml
"CCOCC [ether, diethyl ether]",inactivation of the virus,Hepatitis B virus [5],inactivated
